Data published in patent publication US20220152090A1, “METHOD FOR TREATING AMYLOIDOGENIC DISEASE” (priority 2020, published 2022).

Legend:
[1] = biological target: T1, Aβ42 (Homo sapiens, UniProt P05067); experiment: Western blot of Aβ42 degradation in SH-SY5Y cells; assay type: cell-based; conditions: for Aβ42 degradation in SH-SY5Y cells co-treated with the agent: Western blotting, FIG. 13; for LPS-induced degradation of Aβ42 in the presence of inhibitor: SH-SY5Y
T1 construct: Aβ42 peptides were collected from the entire volume of the cell culture medium and total cell lysates; host or cells: Peptide added to the medium of SH-SY5Y cells; not made by the cells
Protocol: Western Blots. To assess the level of Aβ42 in the cell culture medium, Aβ42 peptides were collected from the entire volume of the cell culture medium and total cell lysates and mixed with protein sample buffer (final 0.1 M Tris-HCl, pH6.8, 10% glycerol, 2% SDS, 1% […], and 0.01% bromophenol blue) for Western blot analysis. The samples of cell mixture were analyzed by SDS-PAGE gel electrophoresis and transferred to a PVDF membrane (Millipore). After blocking with blocking buffer containing 5% w/v nonfat dry milk in PBST (1× phosphate-buffered saline and 0.1% Tween 20) at room temperature for 1 h, the membrane was incubated with a primary antibody diluted in the blocking buffer at 4° C. overnight. After hybridization with primary antibody, the membrane was washed three times with PBST before the addition of an HRP-conjugated secondary antibody against the primary antibody. The membrane was then washed three times with PBST before immunoreactive bands were detected by chemiluminescence (PerkinElmer) or Ponceau S staining (Bersting Technology).

[2] = system: SH-SY5Y cells; experiment: Cell viability (CCK8) of Aβ42-treated neuronal cells; assay type: cell-based
Protocol: The general procedures used for preparing the transient LPS-Aβ42 complex and the validation of cell cytotoxicity were as follows. First, Aβ42 (100 μM) and LPS (1000 nM, derived from Escherichia coli O111:B4, Sigma-Aldrich) were added to each group medium containing 2.5% dimethyl sulfoxide (DMSO) and then sterilized by using UV light. The medium was then replaced and the remaining mixture was incubated for 72 hours at 37° C. in 5% CO2 humidified air. Cell viability was measured using the CCK8 (Sigma-Aldrich 96992) assay according to the manufacturer's protocol. A 0.22-μm filter (non-pyogenic, Millex®-GV) was used to remove unbound LPS, if needed, in the LPS-Aβ42 solution.
Cell viability. Neural cells were maintained in MEM (Gibco 11095-080) supplemented with 10% FBS and 1×MEM NEAA (Gibco 11140-050). Neural SH-SY5Y cells were plated at a density of 8000 cells per well in 96-well plates (Costar 3599) and allowed to attach overnight at 37° C. in 5% CO2 humidified air. Aβ42 (100 μM), LPS (1000 nM), SAuM (1000 nM), or colistin (1000 nM) were then added to each group medium containing 2.5% dimethyl sulfoxide (DMSO) and sterilized by using UV light. The medium was then replaced every day and the remaining mixture was incubated for 72 hours at 37° C. in 5% CO2 humidified air. Cell viability was measured using the CCK8 (Sigma-Aldrich 96992) assay according to the manufacturer's protocol. A 0.22-μm filter (non-pyogenic, Millex®-GV) was used to remove unbound LPS, if needed, in the LPS-Aβ42 solution.

T1 sequence (P05067 672-713 limits assumed): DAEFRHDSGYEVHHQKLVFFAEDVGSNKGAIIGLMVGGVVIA

Compound: Monophosphoryl lipid A [MPL]
- Aβ42 degradation in SH-SY5Y cells co-treated with the agent [1]: able to cause Aβ42 degradation

Compound: O=C(N/N=C/c1ccc(O)c(O)c1)c1cc2ccccc2cc1O [dynasore]
- LPS-induced degradation of Aβ42 in the presence of inhibitor [1]: suppressed

Compound: CN(C)CCCN1c2ccccc2Sc2ccc(Cl)cc21 [chlorpromazine]
- LPS-induced degradation of Aβ42 in the presence of inhibitor [1]: suppressed

Compound: CO/C1=C\C(C)=C\[C@@H](C)[C@@H](O)[C@@H](C)C/C(C)=C/C=C/[C@H](OC)[C@@H]([C@@H](C)[C@@H](O)[C@H](C)[C@@]2(O)C[C@@H](O)[C@H](C)[C@@H](C(C)C)O2)OC1=O [BA, bafilomycin A1]
- rescue effect of LPS against Aβ42 neuronal toxicity in the presence of inhibitor [2]: increasing the cell death
- LPS-induced degradation of Aβ42 in the presence of inhibitor [1]: decreasing the degradation of Aβ42

Compound: CCCCCCCCCCC[C@@H](O)CC(=O)N[C@H]1[C@H](OC[C@H]2O[C@H](OP(=O)(O)O)[C@H](NC(=O)C[C@H](O)CCCCCCCCCCC)[C@@H](OC(=O)C[C@H](O)CCCCCCCCCCC)[C@@H]2O)O[C@H](CO)[C@@H](OP(=O)(O)O)[C@@H]1OC(=O)C[C@H](O)CCCCCCCCCCC [PIX, 2-deoxy-6-O-(2-deoxy-3-O-[(3R)-3-hydroxytetradecanoyl]-2-{[(3R)-3-hydroxytetradecanoyl]amino}-4-O-phosphono-β-D-glucopyranosyl)-3-O-[(3R)-3-hydroxytetradecanoyl]-2-{[(3R)-3-hydroxytetradecanoyl]amino}-1-O-phosphono-α-D-glucopyranose]
- Aβ42 degradation in SH-SY5Y cells co-treated with the agent [1]: able to cause Aβ42 degradation

Compound: Cn1cnc(=N)c2[nH]cnc21 [3MA, methyladenine]
- rescue effect of LPS against Aβ42 neuronal toxicity in the presence of inhibitor [2]: increasing the cell death
- LPS-induced degradation of Aβ42 in the presence of inhibitor [1]: decreasing the degradation of Aβ42

Compound: colistin
- rescue effect of LPS against Aβ42 neuronal toxicity in the presence of inhibitor [2]: abolished

Compound: methyl-β-cyclodextrin
- LPS-induced degradation of Aβ42 in the presence of inhibitor [1]: suppressed

Compound: CCCCCCCCCCC[C@@H](O)CC(=O)N[C@H]1[C@H](OC[C@H]2OC(O)[C@H](NC(=O)C[C@H](O)CCCCCCCCCCC)[C@@H](OC(=O)C[C@H](O)CCCCCCCCCCC)[C@@H]2O)O[C@H](CO)[C@@H](OP(=O)(O)O)[C@@H]1OC(=O)C[C@H](O)CCCCCCCCCCC (stereo partly drawn) [PXI, 2-deoxy-6-O-(2-deoxy-3-O-[(3R)-3-hydroxytetradecanoyl]-2-{[(3R)-3-hydroxytetradecanoyl]amino}-4-O-phosphono-β-D-glucopyranosyl)-3-O-[(3R)-3-hydroxytetradecanoyl]-2-{[(3R)-3-hydroxytetradecanoyl]amino}-D-glucopyranose]
- Aβ42 degradation in SH-SY5Y cells co-treated with the agent [1]: able to cause Aβ42 degradation
